# Experimental data from PubChem BioAssay AID1963973 (Molecular Pharmacology Branch, DTP, NCI, 2024).
# System: 883617-216-R-J1-PDC tumor spheroids, viability
# Test: Anticancer human tumor 883617-216-R-J1-PDC patient-derived bladder carcinoma cell line growth inhibition [PI3K]
# Details: spheroids with HUVEC and MSC; for IC50: curve of first compound; for viability, T/C: stronger effect = lower value
# In short: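 Stroma-containing spheroids: tumor line, pooled-donor HUVEC, hMSC. Treatments: targeted agents with PI3K inhibitors. Dosing: clinically relevant, half-log spacing, 10 microM ceiling without known Cmax. Read-out: cell viability.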
# 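Also: spheroids exposed to agents for 7 days before the viability read.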
structure (smiles),measurement,setting,value
CC1(C)CCC(Nc2ncc(C(F)(F)F)c(-c3c[nH]c4c(P(C)(C)=O)c(C#N)ccc34)n2)CN1 (centres undefined) + CC(Nc1ncnc2nc[nH]c12)c1cc2cccc(Cl)c2c(=O)n1-c1ccccc1,IC50,second compound 0.0316 µM,< 31.6 nM
same,IC50,second compound 0.1 µM,< 31.6 nM
same,IC50,second compound 0.316 µM,< 31.6 nM
same,IC50,second compound 1 µM,< 31.6 nM
same,IC50,second compound 3.16 µM,< 31.6 nM
same,IC50,second compound 10 µM,< 31.6 nM
same,"viability, T/C","second compound 0.0316 µM, first compound 0.0316 µM",37.5%
same,"viability, T/C","second compound 0.0316 µM, first compound 0.1 µM",37.6%
same,"viability, T/C","second compound 0.0316 µM, first compound 0.316 µM",36.1%
same,"viability, T/C","second compound 0.0316 µM, first compound 1 µM",31.7%
same,"viability, T/C","second compound 0.0316 µM, first compound 3.16 µM",14.5%
same,"viability, T/C","second compound 0.0316 µM, first compound 10 µM",0.45%
same,"viability, T/C","second compound 0.1 µM, first compound 0.0316 µM",36.2%
same,"viability, T/C","second compound 0.1 µM, first compound 0.1 µM",30.1%
same,"viability, T/C","second compound 0.1 µM, first compound 0.316 µM",32.6%
same,"viability, T/C","second compound 0.1 µM, first compound 1 µM",30.9%
same,"viability, T/C","second compound 0.1 µM, first compound 3.16 µM",13.9%
same,"viability, T/C","second compound 0.1 µM, first compound 10 µM",1.12%
same,"viability, T/C","second compound 0.316 µM, first compound 0.0316 µM",33.4%
same,"viability, T/C","second compound 0.316 µM, first compound 0.1 µM",35.1%
same,"viability, T/C","second compound 0.316 µM, first compound 0.316 µM",31.1%
same,"viability, T/C","second compound 0.316 µM, first compound 1 µM",26.5%
same,"viability, T/C","second compound 0.316 µM, first compound 3.16 µM",13.9%
same,"viability, T/C","second compound 0.316 µM, first compound 10 µM",1.62%
same,"viability, T/C","second compound 1 µM, first compound 0.0316 µM",33.6%
same,"viability, T/C","second compound 1 µM, first compound 0.1 µM",33.7%
same,"viability, T/C","second compound 1 µM, first compound 0.316 µM",28.8%
same,"viability, T/C","second compound 1 µM, first compound 1 µM",28.1%
same,"viability, T/C","second compound 1 µM, first compound 3.16 µM",11.7%
same,"viability, T/C","second compound 1 µM, first compound 10 µM",0.54%
same,"viability, T/C","second compound 3.16 µM, first compound 0.0316 µM",29.7%
same,"viability, T/C","second compound 3.16 µM, first compound 0.1 µM",27.3%
same,"viability, T/C","second compound 3.16 µM, first compound 0.316 µM",28.8%
same,"viability, T/C","second compound 3.16 µM, first compound 1 µM",24.7%
same,"viability, T/C","second compound 3.16 µM, first compound 3.16 µM",15%
same,"viability, T/C","second compound 3.16 µM, first compound 10 µM",1.34%
same,"viability, T/C","second compound 10 µM, first compound 0.0316 µM",25.7%
same,"viability, T/C","second compound 10 µM, first compound 0.1 µM",20.8%
same,"viability, T/C","second compound 10 µM, first compound 0.316 µM",21.8%
same,"viability, T/C","second compound 10 µM, first compound 1 µM",20.9%
same,"viability, T/C","second compound 10 µM, first compound 3.16 µM",19.2%
same,"viability, T/C","second compound 10 µM, first compound 10 µM",0.84%
Cn1cnc2c(F)c(Nc3ccc(Br)cc3Cl)c(C(=O)NOCCO)cc21 + COc1c(OCCCN2CCOCC2)ccc2c3n(c(=NC(=O)c4cnc(N)nc4)nc12)CCN3,IC50,second compound 0.00316 µM,23.6 nM
same,IC50,second compound 0.01 µM,< 9.49 nM
same,IC50,second compound 0.0316 µM,< 9.49 nM
same,IC50,second compound 0.1 µM,< 9.49 nM
same,IC50,second compound 0.316 µM,< 9.49 nM
same,IC50,second compound 1 µM,< 9.49 nM
same,"viability, T/C","second compound 0.00316 µM, first compound 0.00949 µM",59.8%
same,"viability, T/C","second compound 0.00316 µM, first compound 0.03 µM",43.9%
same,"viability, T/C","second compound 0.00316 µM, first compound 0.0949 µM",37.1%
same,"viability, T/C","second compound 0.00316 µM, first compound 0.3 µM",39.7%
same,"viability, T/C","second compound 0.00316 µM, first compound 0.949 µM",22.8%
same,"viability, T/C","second compound 0.00316 µM, first compound 3 µM",18.9%
same,"viability, T/C","second compound 0.01 µM, first compound 0.00949 µM",44.2%
same,"viability, T/C","second compound 0.01 µM, first compound 0.03 µM",42.5%
same,"viability, T/C","second compound 0.01 µM, first compound 0.0949 µM",27%
same,"viability, T/C","second compound 0.01 µM, first compound 0.3 µM",21.2%
same,"viability, T/C","second compound 0.01 µM, first compound 0.949 µM",22.8%
same,"viability, T/C","second compound 0.01 µM, first compound 3 µM",15.2%
same,"viability, T/C","second compound 0.0316 µM, first compound 0.00949 µM",23.1%
same,"viability, T/C","second compound 0.0316 µM, first compound 0.03 µM",20.8%
same,"viability, T/C","second compound 0.0316 µM, first compound 0.0949 µM",16.4%
same,"viability, T/C","second compound 0.0316 µM, first compound 0.3 µM",14.1%
same,"viability, T/C","second compound 0.0316 µM, first compound 0.949 µM",11.8%
same,"viability, T/C","second compound 0.0316 µM, first compound 3 µM",7.94%
same,"viability, T/C","second compound 0.1 µM, first compound 0.00949 µM",9.95%
same,"viability, T/C","second compound 0.1 µM, first compound 0.03 µM",7.44%
same,"viability, T/C","second compound 0.1 µM, first compound 0.0949 µM",5.9%
same,"viability, T/C","second compound 0.1 µM, first compound 0.3 µM",4.34%
same,"viability, T/C","second compound 0.1 µM, first compound 0.949 µM",3.93%
same,"viability, T/C","second compound 0.1 µM, first compound 3 µM",2.03%
same,"viability, T/C","second compound 0.316 µM, first compound 0.00949 µM",3.44%
same,"viability, T/C","second compound 0.316 µM, first compound 0.03 µM",2.07%
same,"viability, T/C","second compound 0.316 µM, first compound 0.0949 µM",1.3%
same,"viability, T/C","second compound 0.316 µM, first compound 0.3 µM",1.34%
same,"viability, T/C","second compound 0.316 µM, first compound 0.949 µM",0.72%
same,"viability, T/C","second compound 0.316 µM, first compound 3 µM",0.47%
same,"viability, T/C","second compound 1 µM, first compound 0.00949 µM",1.2%
same,"viability, T/C","second compound 1 µM, first compound 0.03 µM",0.53%
same,"viability, T/C","second compound 1 µM, first compound 0.0949 µM",0.38%
same,"viability, T/C","second compound 1 µM, first compound 0.3 µM",0.39%
same,"viability, T/C","second compound 1 µM, first compound 0.949 µM",0.18%
same,"viability, T/C","second compound 1 µM, first compound 3 µM",0.21%
